Reference: patent publication US20070185099A1, “Triazolopyrimidine compounds and their use for controlling pathogenic fungi” (priority 2004, published 2007)

Test system: Puccinia recondita
Assay: Curative activity against brown rust of wheat caused by Puccinia recondita
Type: in vivo
Details: 250 ppm active compound, wheat cultivar Kanzler, 7 days after treatment, untreated plants 80% infected
Procedure: The active compounds were prepared as a stock solution by mixing 25 mg of active compound with a mixture of acetone and/or DMSO and the emulsifier Uniperol® EL (wetting agent having an emulsifying and dispersing action based on ethoxylated alkylphenols) in a volume ratio of solvent/emulsifier of 99:1 to give a total volume of 10 ml, and the mixture was then diluted to 100 ml with water. This stock solution was diluted with the solvent/emulsifier/water mixture described to give the concentration of active compounds stated below.
Leaves of potted wheat seedlings of the cultivar “Kanzler” were inoculated with a spore suspension of brown rust (Puccinia recondita). The pots were then placed into a chamber with high atmospheric humidity (90 to 95%) and at 20-22° C. for 24 hours. During this time, the spores germinated and the germ tubes penetrated into the leaf tissue. The next day, the infected plants were sprayed to runoff point with an aqueous suspension having the concentration of active compounds stated below. The suspension or emulsion was prepared as described above. After the spray coating had dried on, the test plants were cultivated in a greenhouse at temperatures between 20 and 22° C. and at 65 to 70% relative atmospheric humidity for 7 days. The extent of the rust fungus development on the leaves was then determined.

SMILES | infection of treated plants (rust fungus development on leaves)
COC(=O)C(Nc1c(-c2c(F)cc(F)cc2F)c(Cl)nc2ncnn12)C(C)(C)C (racemic) [Example 61] | no infection
COC(=O)C(C(C)C)N(C)c1c(-c2c(F)cc(F)cc2F)c(Cl)nc2ncnn12 (centres unmarked) [Example 60] | no infection
